Assay results as given in US8586522B2, “Glycol dilevulinates as coupling agents in cleaning formulations” (Dow Global Technologies LLC, priority 2011, dated 2013).

Tests used:
[1] = Water solubility of alkylene glycol dilevulinates; assay type: physicochemical
From the text: Ethylene glycol dilevulinate (EGDL) is 100% water soluble while 1,2-propylene glycol dilevulinate (1,2-PGDL) is 10% soluble by weight in water, and 1,3-propylene glycol dilevulinate (1,3-PGDL) is 25% soluble. All three compounds also dissolve aromatic hydrocarbon compounds such as toluene and xylene, while having limited solubility for simple aliphatic hydrocarbons such as hexane and cyclohexane. Thus, C2-C3 alkylene glycol dilevulinates appear to provide the greatest benefits when used as coupling agents in water-based cleaning formulations.

[2] = Coupling effectiveness / phase stability with d-limonene (Sets I & II); assay type: physicochemical; parameters: key to appearance of sample formulation (coupling of d-limonene): clear: Clear indicates successful coupling of the d-limonene; cloudy indicates poor or no coupling; conditions: for appearance of sample formulation (coupling of d-limonene): 20% coupling agent, Column 6; for effectiveness at coupling d-limonene: absence of surfactant (0% SLS); for d-limonene level successfully coupled: 1% SLS, solvent at a 20% level, highest d-limonene level tested
Description: Two sets of experiments (I & II) were performed to determine the relative coupling effectiveness of fragrance (d-limonene)-containing aqueous formulations having various traditional coupling agents (glycol ethers) and those having various alkylene glycol dilevulinates as the coupling agents, at various temperatures (5° C., room temperature (25° C.) and 40° C.). The details are provided below and the results are shown in diagrams provided in FIGS. 1-16 and explained hereinbelow.
Stock solutions were prepared that contained the main components which didn't change throughout these experiments. Each formulation contained the following standard ingredients: […]
With reference now to the figures, FIGS. 1-8 relate to the Set of Comparative Examples. Each circle represents one sample formulation. More particularly, each of FIGS. 1 & 5 provide a schematic grid diagram of the general layout of sample formulations having various types of glycol ethers as coupling agents and various amounts of d-limonene fragrance, in the presence of 1% SLS surfactant and absence (0% SLS) of surfactant.
FIGS. 2-4 & 6-8 show the results (clear/white or cloudy/black) for the sample formulations identified in the grids of FIGS. 1 and 5 at 5° C., room temperature (25° C.), and 40° C., respectively. Clear indicates successful coupling of the d-limonene and cloudy indicates poor or no coupling.
FIGS. 9-16 relate to the Set II of Working Examples. As with FIGS. 1-8, each circle represents one sample formulation. More particularly, FIG. 9 provides a schematic grid diagram of the general layout of sample formulations having various types of alkylene glycol dilevulinates as coupling agents and various amounts of d-limonene fragrance. For instance, rows A & B of the grid in FIG. 9 were formulations that each had 0.25% by weight d-limonene. Thus, rows A & B of each of FIGS. 10-12 & 14-16 depict formulations that had 0.25% by weight d-limonene.
FIGS. 10-12 & 14-16 show the results (clear/white or cloudy/black) for the sample formulations identified in the grids of FIGS. 9 & 13 at 5° C., room temperature (25° C.), and 40° C., respectively. Clear indicates successful coupling of the d-limonene and cloudy indicates poor or no coupling.

| Compound | water soluble / soluble by weight in water [1] [%] | d-limonene level successfully coupled [2] [%] | effectiveness at coupling d-limonene [2] | also measured |
| --- | --- | --- | --- | --- |
| COC(C)COC(C)CO (centres unmarked) [DOWANOL DPM, dipropylene glycol methyl ether] |  | 3 |  | d-limonene level coupled into an aqueous mixture ([2]; absence of added SLS surfactant): more than 0.25% |
| CCCCCCOCCOCCO [HxCb, diethylene glycol n-hexyl ether] |  | 3 |  | appearance of sample formulation (coupling of d-limonene) ([2]; 5° C. (FIG. 2), 0.75% d-limonene, Row D): cloudy; appearance of sample formulation (coupling of d-limonene) ([2]; 40° C., 0.75% d-limonene, Row D): cloudy; appearance of sample formulation (coupling of d-limonene) ([2]; room temperature (FIG. 3), 0.75% d-limonene, Row D): clear |
| CC(=O)CCC(=O)OCCCOC(=O)CCC(C)=O [1,3-propylene glycol dilevulinate] |  |  | better than 1,2-propylene glycol dilevulinate |  |

The next lines start with results.

| water soluble / soluble by weight in water [1] [%] | d-limonene level successfully coupled [2] [%] | Compound | effectiveness at coupling d-limonene [2] | also measured |
| --- | --- | --- | --- | --- |
| 100 |  | CC(=O)CCC(=O)OCCOC(=O)CCC(C)=O [EGDL, ethylene glycol dilevulinate] | better than 1,2-propylene glycol dilevulinate | appearance of sample formulation (coupling of d-limonene) ([2]; 5° C. (FIG. 2), 1.5% d-limonene, Row F): clear; appearance of sample formulation (coupling of d-limonene) ([2]; 40° C., 1.5% d-limonene, Row F): cloudy; appearance of sample formulation (coupling of d-limonene) ([2]; room temperature (FIG. 3), 1.5% d-limonene, Row F): clear |
| 10 |  | CC(=O)CCC(=O)OCC(C)OC(=O)CCC(C)=O (centres unmarked) [1,2-PGDL, 1,2-propylene glycol dilevulinate] |  |  |
| 25 |  | CC(=O)CCC(=O)OCCCOC(=O)CCC(C)=O [1,3-PGDL, 1,3-propylene glycol dilevulinate] |  |  |
